The text below walks through data of US12576048B2, “Anti-cancer activity of adamantane derivatives” (The Regents of the University of California, priority 2018, dated 2026).

One experiment concerns Tau. Put plainly: Tau mRNA expression by RT-qPCR. Particulars: 24 hours; FIGS. 12A and B. The experiment is classed as cell-based. The protocol: FIGS. 12A and 12B are plots showing Tau mRNA expression, which was analyzed 24 hours following treatment with rimantadine.
(§1) Total RNA were extracted using TRIzol Reagent (Invitrogen) and reverse transcribed with qScript cDNA Synthesis Kit (Quanta BioSciences, Beverly, MA) according to the manufacturer's instructions. Quantitative PCR analysis were conducted by using KAPA SYBR […] FAST (KAPA Biosystems, Wilmington, MA) on the 7900HT Fast Real-Time PCR System (Applied Biosystems, Foster City, CA).

The test system of experiment [1] is B16-OVA cells co-cultured with B3Z cells. Put plainly: B3Z activation assay. The experiment is classed as cell-based. The conditions noted are these: 100 μM rimantadine 24 hours, then 24 hours co-culture; FIG. 5. The protocol:
FIG. 5 is a plot showing B3Z activation after rimantadine treatment (48 hours).
B16-OVA cells were seeded into 96-well plate and treated with 100 μM rimantadine for 24 hours, prior to addition of B3Z cells. After 24 hours of co-culture, medium was removed and 100 μl of lysis buffer [0.155 mM chlorophenol red β-D-galactopyranoside (CPRG) (Roche), 0.125% Nonidet P-40 Alternative (EMD-Calbiochem), and 9 mM MgCl2 (Sigma) in PBS] was added. After incubation for 4 hours at 37° C., the absorbance at 570 nm was determined on a TECAN infinite M200 microplate reader.

The test system of experiment [2] is multiple cell lines (AT-84-E7, B16-OVA, 4T1, B16, MC38). The conditions noted are these: rimantadine 100 μM, 48 hours or 24 hours; FIGS. 3A-3E, 4A-D.
Procedure: FIGS. 3A-3E are plots showing MHC I expression or antigen-presentation (H-2Kb/[sequence]) as analyzed by flow cytometry after rimantadine treatment (100 μM, 48 hours). FIG. 3A is a plot showing MHC I expression for the AT-84-E7 model. FIG. 3B is a plot showing MHC I expression for the B16-OVA model. FIG. 3C is a plot showing antigen-presentation (H-2Kb/[sequence]) for the B16-OVA model. FIG. 3D is a plot showing MHC I expression for the 4T1 model.
FIGS. 4A-4D are plots showing MHC expression in tumor cells. FIGS. 4A and 4B show MHC I expression analyzed by flow cytometry 48 hours after rimantadine treatment for B16 and MC38 cells, respectively. FIGS. 4C and 4D are plots showing expression of MHC I and antigen presentation (H-2Kb/[sequence]), respectively, 24 hours after rimantadine treatment in B16-OVA cells.
After obtaining single-cell suspensions, each sample was incubated with an Fc blocking reagent (anti-CD16/32 antibody; BioLegend, San Diego, CA). Following Fc blockade, cells were stained with fluorescent-labeled antibodies [BioLegend, BD Bioscience (San Jose, CA), or eBiosciences (Thermo Fisher Scientific, Waltham, MA)]. LIVE/DEAD Fixable Cell Staining Kit (Invitrogen) was used for viability staining. […] Cells were analyzed using a BD FACS Aria II or LSR II flow cytometer (BD). Data was analyzed on FlowJo (FlowJo, LLC, Ashland, OR). […]
In a further experiment the test system is 4T1 tumor cells. Put plainly: Tumor volume in mice inoculated with 4T1 tumor cells. The format is in vivo. Particulars: 10 mg/kg IP once daily, 7 injections starting on day 6; FIG. 1C. The protocol: (§2) FIGS. 1A-1E are plots showing the effects of rimantadine or PEGylated rimantidine on tumor volume in different cancer models.
(§3) Mice were injected subcutaneously with 1.0 to 5.0×10^5 AT-84-E7, 1.5×10^5 B16-OVA, or 5.0×10^5 4T1 cells resuspended in 100 μl of PBS in the right flank. For orthotopic models, 1.0×10^5 AT-84-E7 or 1.0×10^6 4MOSC1 in 30 μl of PBS were injected into tongue. Tumor diameter was measured every 2 to 3 days with an electronic caliper and reported as volume using the formula; tumor volume (mm3)=(length×width2)/2. Once tumors become palpable, mice were treated with 200 μg of anti-PD-L1 antibody (BioXcell, West Lebanon, NH) via IP injection every 3 days for a total of three or four injections per mouse, or mice were treated with 10 mg/kg body weight of rimantadine (Sigma, St. Louis, MO) via IP injection daily for 7 days. For adoptive transfer experiments, first, single-cell suspension of spleen from OT-1 mice were cultured in media containing 10 ng/ml OVA SIINFEKL peptide (InvivoGen, San Diego, CA) and 2 ng/ml recombinant IL-2 (PeproTech, Rocky Hill, NJ) […], and then 4.0×10^6 cells were intravenously injected into B16-OVA-bearing mice.

Experiment [3] concerns CAL-33 squamous cell carcinoma cell line. Put plainly: BrdU cell cycle analysis, CAL-33. The experiment is classed as cell-based, human. The conditions noted are these: rimantadine alone; FIG. 13. The protocol: (§4) FIG. 13 has plots showing the effect of rimantadine on human HNSCC lines as labeled. BrdU cell cycle analysis (upper) and MTT proliferation assay (lower).
(§5) Cell cycle progression was analyzed on the basis of BrdU incorporation following […] cell staining with BrdU-APC and 7-AAD using BD Pharmingen BrdU Flow Kit. (BD, Franklin Lakes, NJ) according to the manufacture's protocol. Cells were analyzed using flow cytometry. Cell proliferation was assessed by using MTT [3-(4,5-dimethylthiazol-2-yl)-2,5-diphenyltetrazolium bromide]. First, cells were seeded in 96-well plate and cultured for 2-3 days. Next, culture media was replaced with fresh media containing 0.5 mg/ml of MTT (Sigma) and the plates were incubated for 4 hours at 37° C. Then, purple formazan crystals were dissolved in lysis buffer (4 mM HCl and 0.1% NP-40 in isopropanol) and the absorbance was recorded on a TECAN infinite M200 microplate reader (Tecan, Männedorf, Switzerland) at a wavelength of 570 nm with absorbance at 650 nm as reference.

Experiment [4] concerns AT-84-E7 tumors which didn't express E5. Put plainly: Tumor volume in mice inoculated with AT-84-E7 cells not expressing E5 (empty vector). The format is in vivo. Particulars: rimantadine for one week; FIG. 2A vs 2B. As for the experimental part: FIGS. 2A and 2B are plots showing the effects of rimantadine on tumor.
as §3

The next experiment has as its system 4MOSC1 tumor cells. Put plainly: Tumor volume in mice inoculated with 4MOSC1 tumor cells (orthotopic HNSCC model). Particulars: 10 mg/kg IP once daily, 7 injections once tumors palpable; FIG. 1D. The format is in vivo. As for the experimental part:
as §2, §3

In a further experiment the test system is B16-OVA tumor cells. Put plainly: Tumor volume in mice inoculated with B16-OVA tumor cells. The format is in vivo. Particulars: 10 mg/kg IP once daily, 7 injections starting on day 10; FIG. 1B, 1E. The protocol:
as §2, §3

Experiment [5] relates to CAL-27 squamous cell carcinoma cell line. Put plainly: BrdU cell cycle analysis, CAL-27. The experiment is classed as cell-based, human. The conditions noted are these: rimantadine alone; FIG. 13. The protocol: as §4, §5
Experiment [6] has as its system SCC-47 squamous cell carcinoma cell line. Put plainly: MTT proliferation assay, SCC-47. The format is cell-based, human. Particulars: rimantadine alone; FIG. 13. The protocol:
as §4, §5
(In general: Tetrazolium dyes change colour on reduction, which living cells bring about.)

The test system of experiment [7] is AT-84-E7 and B16-OVA models. Put plainly: Cell proliferation assay (MTT), FIG. 9. The experiment is classed as cell-based. Particulars: 48 hours. The protocol: FIG. 9 has plots showing the cell proliferation assay (MTT), which was analyzed 48 hours following treatment with rimantadine.
as §5

A further experiment concerns AT84-E7/E5 tumor cells. Put plainly: Tumor volume in mice inoculated with AT84-E7/E5 tumor cells. The format is in vivo. Particulars: 10 mg/kg IP once daily, 7 injections starting on day 8; FIG. 1A. The protocol: as §2, §3
The next experiment relates to B16-OVA melanoma. Put plainly: MTT proliferation assay, B16-OVA (Example 2). The experiment is classed as cell-based, murine. Particulars: 48 hours; FIG. 16A.
The test system of another experiment is RAW264.7 cell line. Particulars: 48 hours after treatment.
In experiment [8] the test system is B16-OVA melanoma tumor line. Put plainly: MHC Class I expression in B16-OVA by flow cytometry (Example 2). The format is cell-based, murine. The conditions noted are these: 24 hours at indicated concentrations; FIG. 15.
In experiment [9] the test system is CAL-27 squamous cell carcinoma cell line. Put plainly: MTT proliferation assay, CAL-27. The experiment is classed as cell-based, human.
Experiment [10] concerns AT-84 E7 squamous cell carcinoma. Put plainly: MTT proliferation assay, AT-84-E7 (Example 2). The experiment is classed as cell-based, murine. The conditions noted are these: 48 hours; FIG. 16B.
The test system of experiment [11] is CAL-33 squamous cell carcinoma cell line. Put plainly: MTT proliferation assay, CAL-33. The experiment is classed as cell-based, human. The conditions noted are these: rimantadine alone; FIG. 13. As for the experimental part:
as §4, §5

The subject of another experiment is B16-OVA. Put plainly: BrdU cell cycle analysis, B16-OVA. The format is cell-based, murine. The conditions noted are these: 24 hours; FIG. 8. As for the experimental part: (§6) FIG. 8 has plots showing the BrdU cell cycle analyzed for 24 hours following treatment with rimantadine,
as §5

In experiment [12] the test system is MOSCC3 squamous cell carcinoma. Put plainly: MTT proliferation assay, MOSCC3 (Example 2). The experiment is classed as cell-based, murine. Particulars: 48 hours; FIG. 16C.
Another experiment has as its system AT-84-E7. Put plainly: BrdU cell cycle analysis, AT-84-E7. The experiment is classed as cell-based, murine. The conditions noted are these: 24 hours; FIG. 8. As for the experimental part: as §6, §5
The next experiment has as its system T cells. Put plainly: T-cell proliferation assay using CFSE-labeled T-cells. Particulars: FIGS. 10A and 10B. The experiment is classed as cell-based. The text has this: FIGS. 10A and 10B are plots showing T-cell proliferation assay using CFSE-labeled T-cells simulated to proliferate in the presence or absence of rimantadine.
The test system of experiment [13] is murine and human cell lines engineered to express HPV16 E5. The format is cell-based. The conditions noted are these: 24 hours; FIG. 14.
The test system of another experiment is Stathmin. Put plainly: Stathmin mRNA expression by RT-qPCR. The experiment is classed as cell-based. Particulars: 24 hours. The protocol:
FIGS. 11A and 11B are plots showing Stathmin mRNA expression, which was analyzed 24 hours following treatment with rimantadine in AT-84-E7 cells and B16-OVA cells, respectively.
as §1

Experiment [14] relates to SCC-47 squamous cell carcinoma cell line. Put plainly: BrdU cell cycle analysis, SCC-47. The experiment is classed as cell-based, human. The conditions noted are these: rimantadine alone; FIG. 13. As for the experimental part:
as §4, §5

Procedure for RAW264.7 cell line: FIGS. 7A and 7B are plots showing cell surface expression of MHC I (H-2Kd) and MHC II (I-A/I-E), respectively, on rimantadine-treated RAW264.7 48 hours after treatment. Data are shown as mean±S.E.M. Statistics were done using an unpaired t-test.
After obtaining single-cell suspensions, each sample was incubated with an Fc blocking reagent (anti-CD16/32 antibody; BioLegend, San Diego, CA). Following Fc blockade, cells were stained with fluorescent-labeled antibodies [BioLegend, BD Bioscience (San Jose, CA), or eBiosciences (Thermo Fisher Scientific, Waltham, MA)]. LIVE/DEAD Fixable Cell Staining Kit (Invitrogen) was used for viability staining. For intracellular staining, cells were processed with Foxp3/Transcription Factor Fixation/Permeabilization Concentrate and Diluent (Invitrogen). Cells were analyzed using a BD FACS Aria II or LSR II flow cytometer (BD). Data was analyzed on FlowJo (FlowJo, LLC, Ashland, OR). For each antibody, the following clones were used: CD45.2 (104), CD3e (145-2C11), CD4 (RM4-5), CD8a (5H10), CD25 (3C7, PC61), CD44 (IM7), CD62L (MEL-14), IFN-γ (XMG1.2), Foxp3 (MF23), H-2Kb (AF6-88.5), H-2Kk (36-7-5), H-2Kd (SF1-1.1), H-2Kb/[sequence] (eBio25-D1.16), I-A/I-E (2G9), CD49b (DX5), CD11b (M1/70), FLAG (L5), CD31 (MEC13.3), NK-T/NK Cell Antigen (U5A2-13), CD102 (3C4 (MIC2/4)), CD62P (RMP-1), CD105 (MJ7/18), CD106 (429 (MVCAM.A)), and CD162 (2PH1).

Consider `CC(N)C12CC3CC(CC(C3)C1)C2` (centres unmarked) [rimantadine], for which the “Tau mRNA expression” value in the experiment with Tau is on record as “Decreases”. Further, in [1], the “increase in recognition of model tumor antigen by B3Z cells” value is on record as 3 fold. In addition, the “surface expression of MHC” value in experiment [2] is reported as “Significant increases”. Also, the “tumor sizes compared to control groups” value in the experiment with 4T1 tumor cells and in the experiment with B16-OVA tumor cells was “statistically significant decreases in tumor sizes” throughout. For the same molecule, the “cell cycle arrest (BrdU)” value in experiment [3] is “Significant cell cycle arrest”; in experiment [5], “Significant cell cycle arrest”; in experiment [13], “induced cell cycle arrest”; in experiment [14], “Significant cell cycle arrest”. In [4], the “anti-tumor effect (tumor volume) relative to E5-expressing tumors” value is listed as “decreased”. Moreover, the “anti-tumor activity (tumor volume)” value in the experiment on 4MOSC1 tumor cells is listed as “significant anti-tumor activity”. Moreover, the “proliferation (MTT)” value is “decreased proliferation” in [6]; “inhibit proliferation” in the experiment with B16-OVA melanoma; “inhibited proliferation” in [9] (48 hours, FIG. 17A); “inhibited proliferation” in experiment [9] (72 hours, FIG. 17B); “decreased proliferation” in experiment [9] (rimantadine alone, FIG. 13); “inhibit proliferation” in [10]. The “proliferation (MTT)” value in [11] was “decreased proliferation”; in experiment [12], “inhibit proliferation”. For the same molecule, the “cell proliferation (MTT)” value in experiment [7] is “Suppression of cell proliferation”. In the experiment with AT84-E7/E5 tumor cells, the “tumor size compared to control groups” value is listed as “statistically significant decreases in tumor size”. Further, the “MHC class I surface expression” value with RAW264.7 cell line (H-2Kd, FIG. 7A) was “significant increases”. Moreover, in the experiment on RAW264.7 cell line (I-A/I-E, FIG. 7B), the “MHC class II surface expression” value is “significant increases”. Moreover, the “cell surface expression of MHC I” value with E5-positive AT-84-E7 is listed as “restored”. Also, in experiment [8], the “MHC Class I Expression” value is listed as “upregulated”. The “GO/G1 cell cycle arrest” value with B16-OVA and with AT-84-E7 was “significant increases” throughout. Moreover, the S phase entry in the experiment with B16-OVA and in the experiment on AT-84-E7 was “significant decreases” throughout. The “proliferation of T cells” value in the experiment on T cells is recorded as “no significant effect”. Further, the “Stathmin mRNA expression” value with Stathmin (AT-84-E7 cells, FIG. 11A) is on record as “significant decreases”; in the experiment with Stathmin (B16-OVA cells, FIG. 11B), “significant decreases”.
Consider `CC12CC3CC(C)(C1)CC(N)(C3)C2` [memantine], for which the “proliferation (MTT)” value in the experiment on B16-OVA melanoma is recorded as “inhibit proliferation”; in experiment [9] (48 hours, FIG. 17A) it was “inhibited proliferation”; in [9] (72 hours, FIG. 17B), “inhibited proliferation”; in experiment [10], “inhibit proliferation”; in experiment [12] it was “inhibit proliferation”. In addition, the “MHC Class I Expression” value in experiment [8] was “upregulated”.
